Test systems include NCI-H226 lung; ACHN renal; UO-31 renal; CCRF-CEM leukemia; SN12C renal; A498 renal; SF-539 CNS; CAKI-1 renal; TK-10 renal; HCC-2998 colon.
Holding throughout (assay): DTP human tumour cell line panel, 48 h

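Step 1: Grow cells in 96-well plates. Step 2: Expose to compound for 48 hours at 5 concentrations. Step 3: Interpolate endpoints linearly; if unreached, use highest concentration. At the GI50, growth is halved. Definition used: TGI = concentration required for complete inhibition of growth.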

Broadly, the TGI is the concentration giving total growth inhibition. Low values mean greater sensitivity of the cells, high ones lower sensitivity of the cells. On to `O=c1c2cc(Cl)ccc2sc2cccc(Cl)c12`, for which the TGI in the experiment with NCI-H226 lung, with ACHN renal, with UO-31 renal, in the experiment on CCRF-CEM leukemia, in the experiment on SN12C renal and in the experiment with A498 renal was over 100 µM each time. The TGI in the experiment with SF-539 CNS, with CAKI-1 renal and with TK-10 renal was over 100 µM in each case.

In general, GI50 refers to the concentration giving 50% growth inhibition. For `Oc1ccc2oc3ncc(Br)c(-c4ccccc4)c3c2c1`, the GI50 in the experiment on ACHN renal, in the experiment on UO-31 renal, in the experiment with CCRF-CEM leukemia, in the experiment on CAKI-1 renal and in the experiment on TK-10 renal was over 100 µM throughout. The TGI with ACHN renal, with UO-31 renal, with CCRF-CEM leukemia, with CAKI-1 renal and with TK-10 renal was over 100 µM throughout.

Take `COc1ccccc1NC(=O)CC(=O)N/N=C/c1ccc(N(CCC#N)S(=O)(=O)c2ccccc2)cc1`: the TGI with NCI-H226 lung, with ACHN renal, with UO-31 renal, in the experiment on CCRF-CEM leukemia, in the experiment on HCC-2998 colon and in the experiment with CAKI-1 renal was over 100 µM throughout. In the experiment with TK-10 renal, the TGI is over 100 µM.

As for `CCOC(=O)c1c2c(n3ccccc13)C(=O)c1ncccc1C2=O`, the GI50 with NCI-H226 lung was 0.0544 µM; in the experiment on ACHN renal it was 0.0343 µM; in the experiment with UO-31 renal, 0.0338 µM; with CCRF-CEM leukemia, 3.06 µM; in the experiment with SN12C renal, 0.0348 µM; in the experiment on HCC-2998 colon, 0.877 µM. Further, the figures for the 50% growth inhibitory concentration (GI50) in the experiment with SF-539 CNS, in the experiment with CAKI-1 renal and with TK-10 renal were 0.111 µM, 0.301 µM and 0.354 µM, respectively. In addition, the TGI in the experiment on NCI-H226 lung is 3.5 µM; with ACHN renal, 6.24 µM; in the experiment on UO-31 renal, 3.79 µM; in the experiment on CCRF-CEM leukemia, over 100 µM; in the experiment with SN12C renal, 5.85 µM; in the experiment on HCC-2998 colon, 14.3 µM. Besides, the TGI in the experiment on SF-539 CNS turned out to be 1.96 µM; with CAKI-1 renal it was 28.5 µM; in the experiment on TK-10 renal it was 20.2 µM.

On to `O=C(NC12CC3CC(CC(C3)C1)C2)C(=O)c1c[nH]c2ccccc12`, for which the TGI in the experiment on ACHN renal came to 28.8 µM; with UO-31 renal, 36.6 µM; with CCRF-CEM leukemia, 73.6 µM; in the experiment with SN12C renal it was 30.4 µM; with HCC-2998 colon, 28 µM; with SF-539 CNS, 26.7 µM. For the same compound, the TGI in the experiment on TK-10 renal was determined as 44.5 µM.

On to `COc1cc2c(cc1OC)/C(=C\c1ccccc1N)C(=O)OC2`, for which the TGI with ACHN renal stood at 34.7 µM; in the experiment with UO-31 renal, 32.7 µM; in the experiment with CCRF-CEM leukemia it was 7.06 µM; in the experiment with SN12C renal, 31.4 µM; in the experiment with HCC-2998 colon, 47.2 µM; in the experiment with SF-539 CNS, 31 µM. For the same compound, the TGI in the experiment on CAKI-1 renal amounted to 27.1 µM; in the experiment with TK-10 renal, 35.2 µM.

`CC(=O)OCC1OC(n2c(-c3ccc(C)cc3)cc(-c3ccccc3)c(C#N)c2=O)C(OC(C)=O)C(OC(C)=O)C1OC(C)=O` (centres undefined): the total growth inhibition concentration (TGI) with NCI-H226 lung, with ACHN renal, in the experiment on UO-31 renal, in the experiment on CCRF-CEM leukemia, in the experiment with SN12C renal and in the experiment with HCC-2998 colon was over 100 µM in each case. The TGI in the experiment on SF-539 CNS, in the experiment with CAKI-1 renal and in the experiment with TK-10 renal was over 100 µM in each case.

On to `CC(C)=CC1=C2C3=C(C(=O)C4(O)Oc5c(C)c6c7c(c5OC24C)[C@@H](C)CC[C@@H]7[C@@H](C)C[C@H]6C=C(C)C)C(C)CCC3C(C)C1` (some centres undefined), for which the GI50 in the experiment with NCI-H226 lung, with ACHN renal, in the experiment on UO-31 renal, in the experiment with CCRF-CEM leukemia, with SN12C renal and with HCC-2998 colon was over 100 µM in each case. The GI50 in the experiment with SF-539 CNS, in the experiment with CAKI-1 renal and in the experiment with TK-10 renal was over 100 µM throughout. Moreover, the TGI with NCI-H226 lung, in the experiment with ACHN renal, in the experiment on UO-31 renal, in the experiment with CCRF-CEM leukemia, with SN12C renal and with HCC-2998 colon was over 100 µM in each case. In addition, the concentration for total growth inhibition (TGI) with SF-539 CNS, in the experiment with CAKI-1 renal and in the experiment on TK-10 renal was over 100 µM throughout.

For the compound `COc1cccc(/C=N/C(/N=C/c2cccc(OC)c2O)c2cccc(OC)c2O)c1O`, the TGI was 58.6 µM in the experiment with ACHN renal; 58.6 µM in the experiment on UO-31 renal; over 100 µM in the experiment on CCRF-CEM leukemia; 77.6 µM with SN12C renal; 73.9 µM in the experiment with HCC-2998 colon; 48.9 µM with SF-539 CNS. Moreover, the values for the TGI with CAKI-1 renal and in the experiment on TK-10 renal were 48.1 µM and 55.6 µM, respectively.

Take `CN(C)CCNC(=O)c1ccc(NC(=O)c2nc([N+](=O)[O-])cn2C)cc1`: the TGI in the experiment on NCI-H226 lung, in the experiment on ACHN renal, with UO-31 renal, in the experiment with CCRF-CEM leukemia, in the experiment on SN12C renal and in the experiment on A498 renal was over 100 µM throughout. Moreover, the total growth inhibition concentration (TGI) in the experiment with SF-539 CNS, in the experiment on CAKI-1 renal and in the experiment with TK-10 renal was over 100 µM throughout.

With `O=C1c2ccccc2-c2c1c1ccccc1c(=O)n2CCCn1ccnc1`, the GI50 with NCI-H226 lung was 1.35 µM; in the experiment on ACHN renal, 0.885 µM; in the experiment with UO-31 renal, 0.359 µM; in the experiment with CCRF-CEM leukemia, 1.51 µM; with SN12C renal, 1.66 µM; in the experiment on A498 renal it was 2.74 µM. The GI50 in the experiment on SF-539 CNS was 2.33 µM; in the experiment on CAKI-1 renal, 0.443 µM; in the experiment on TK-10 renal it was 1.97 µM. The TGI in the experiment on NCI-H226 lung was 3.04 µM; in the experiment with ACHN renal it was 3.43 µM; in the experiment with UO-31 renal, over 100 µM; in the experiment on CCRF-CEM leukemia, over 100 µM; with SN12C renal, 4.31 µM; in the experiment with A498 renal it was 14.1 µM. The total growth inhibition concentration (TGI) in the experiment on SF-539 CNS came to 8.06 µM; in the experiment with CAKI-1 renal, 2.05 µM; with TK-10 renal, 6.83 µM.

`C=CCC1C(=O)CC2(C)CC(=O)C(CC=C)C12C` (centres undefined): the TGI in the experiment with NCI-H226 lung, in the experiment on ACHN renal, with UO-31 renal, in the experiment with CCRF-CEM leukemia, in the experiment on SN12C renal and in the experiment on HCC-2998 colon was over 100 µM in each case. The TGI in the experiment with SF-539 CNS, with CAKI-1 renal and in the experiment with TK-10 renal was over 100 µM each time.

For the compound `CN(Cc1cc(C(C)(C)C)cc(Br)c1O)Cc1cc(C(C)(C)C)cc(Br)c1O`, the TGI in the experiment with NCI-H226 lung came out at 13.3 µM; with ACHN renal, 9.01 µM; in the experiment with UO-31 renal, 12.7 µM; in the experiment with CCRF-CEM leukemia, 10.4 µM; with SN12C renal it was 15.2 µM; in the experiment with A498 renal, 8.93 µM. Besides, the results for the TGI in the experiment on SF-539 CNS, in the experiment with CAKI-1 renal and in the experiment with TK-10 renal were 7.66 µM, 11.4 µM and 5.88 µM, respectively.

The values are drawn from PubChem BioAssay (NCI).
